Reference: patent US10906910B2, “Substituted bicyclic pyrimidine compounds with tubulin and multiple receptor inhibition” (Duquesne University of the Holy Spirit, priority 2014, dated 2021)
Where a name gives a salt, the structure may show the parent alone.

Experiments:
MTD in mice = details: BALB/c, mouse, in vivo, ip
Description: (§1) BALB/c mice were implanted with 7.5 k 4T1-Luc2GFP triple negative mouse breast cancer cells orthotopically into mammary fat pad 4. 7 days after implantation, tumors are visible in over 90% of animals. At day 8 and continuing twice weekly until the experiment end, the MTD of compound 4.HCl (i.e. the hydrochloride salt of compound 4 shown in FIG. 1), determined to be 40 mg/kg, was given IP to tumor-bearing mice; […]; Both drugs were in solvent (5% solutol-15, 5% PharmaSolve in normal saline) and a solvent control group was included in addition to sham injected (untreated) group. Primary tumor volume and animal weights was assessed by calipers throughout the experiment.

[1] = tested on: 4T1-Luc2GFP triple negative mouse breast cancer cells; format: in vivo; details: for animal weight: mouse, in vivo
Description: as §1
On day 40, all animals were injected IV with fluorescently labeled dextran as a marker of vasculature. Tumors were excised and weighed; lungs were excised and evaluated for metastases. […]; large micro metastases (>10 cells with no vasculature) and macrometastases (>10 cells with apparent vasculature) were counted. […]

[2] = tested on: βIII-tubulin overexpressing HeLa cell line; assay: HeLa cytotoxicity, βIII-tubulin overexpressing; format: cell-based; details: for IC50: Homo sapiens, βIII-tubulin overexpressing HeLa
wild type HeLa cells = assay: HeLa cytotoxicity, wild type; format: cell-based; details: Homo sapiens
A431 cells = assay: A431 cytotoxicity; format: cell-based; details: Homo sapiens, A-431
bovine brain tubulin = assay: inhibition of tubulin assembly; format: biochemical; details: bovine tubulin
EGFR = EGFR (Homo sapiens, UniProt P00533); assay: EGFR kinase inhibition, whole-cell assay; format: cell-based; details: read-out: kinase inhibition IC50 [whole-cell assays] EGFR
EGFR, sequence (P00533 25-1210, species assumed): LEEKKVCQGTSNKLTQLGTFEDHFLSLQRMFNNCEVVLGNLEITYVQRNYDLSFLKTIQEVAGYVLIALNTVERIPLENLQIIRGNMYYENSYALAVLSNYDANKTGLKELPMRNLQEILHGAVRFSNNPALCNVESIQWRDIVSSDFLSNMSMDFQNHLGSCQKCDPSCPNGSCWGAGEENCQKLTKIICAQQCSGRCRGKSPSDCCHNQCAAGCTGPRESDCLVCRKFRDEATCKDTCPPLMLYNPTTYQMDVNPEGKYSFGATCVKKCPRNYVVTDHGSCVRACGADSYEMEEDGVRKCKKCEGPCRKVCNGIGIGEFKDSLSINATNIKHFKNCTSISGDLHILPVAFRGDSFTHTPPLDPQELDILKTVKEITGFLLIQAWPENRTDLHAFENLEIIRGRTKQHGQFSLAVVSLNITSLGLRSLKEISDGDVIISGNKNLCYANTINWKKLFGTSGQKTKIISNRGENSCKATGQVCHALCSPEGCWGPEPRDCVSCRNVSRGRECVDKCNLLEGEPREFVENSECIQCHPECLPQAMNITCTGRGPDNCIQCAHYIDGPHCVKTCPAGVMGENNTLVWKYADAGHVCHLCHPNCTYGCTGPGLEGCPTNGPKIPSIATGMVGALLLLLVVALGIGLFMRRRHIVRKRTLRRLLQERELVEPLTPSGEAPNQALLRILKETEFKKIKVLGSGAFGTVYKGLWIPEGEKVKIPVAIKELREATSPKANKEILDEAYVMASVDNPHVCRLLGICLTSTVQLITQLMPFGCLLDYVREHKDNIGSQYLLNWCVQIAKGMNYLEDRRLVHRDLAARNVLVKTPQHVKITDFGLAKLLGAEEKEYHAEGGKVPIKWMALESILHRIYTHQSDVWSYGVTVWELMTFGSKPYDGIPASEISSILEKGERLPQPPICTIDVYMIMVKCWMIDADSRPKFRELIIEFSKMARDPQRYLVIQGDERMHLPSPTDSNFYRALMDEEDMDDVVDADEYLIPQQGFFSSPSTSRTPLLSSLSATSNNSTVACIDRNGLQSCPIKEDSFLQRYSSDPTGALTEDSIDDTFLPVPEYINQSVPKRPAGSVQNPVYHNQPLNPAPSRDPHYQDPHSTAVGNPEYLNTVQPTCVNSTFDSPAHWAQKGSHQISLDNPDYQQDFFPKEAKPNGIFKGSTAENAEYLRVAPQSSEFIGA

VEGFR2 = VEGFR2 (Homo sapiens, UniProt P35968); assay: VEGFR2 kinase inhibition, whole-cell assay; format: cell-based; details: read-out: kinase inhibition IC50 [whole-cell assays] VEGFR2
VEGFR2, sequence (P35968 20-1356, species assumed): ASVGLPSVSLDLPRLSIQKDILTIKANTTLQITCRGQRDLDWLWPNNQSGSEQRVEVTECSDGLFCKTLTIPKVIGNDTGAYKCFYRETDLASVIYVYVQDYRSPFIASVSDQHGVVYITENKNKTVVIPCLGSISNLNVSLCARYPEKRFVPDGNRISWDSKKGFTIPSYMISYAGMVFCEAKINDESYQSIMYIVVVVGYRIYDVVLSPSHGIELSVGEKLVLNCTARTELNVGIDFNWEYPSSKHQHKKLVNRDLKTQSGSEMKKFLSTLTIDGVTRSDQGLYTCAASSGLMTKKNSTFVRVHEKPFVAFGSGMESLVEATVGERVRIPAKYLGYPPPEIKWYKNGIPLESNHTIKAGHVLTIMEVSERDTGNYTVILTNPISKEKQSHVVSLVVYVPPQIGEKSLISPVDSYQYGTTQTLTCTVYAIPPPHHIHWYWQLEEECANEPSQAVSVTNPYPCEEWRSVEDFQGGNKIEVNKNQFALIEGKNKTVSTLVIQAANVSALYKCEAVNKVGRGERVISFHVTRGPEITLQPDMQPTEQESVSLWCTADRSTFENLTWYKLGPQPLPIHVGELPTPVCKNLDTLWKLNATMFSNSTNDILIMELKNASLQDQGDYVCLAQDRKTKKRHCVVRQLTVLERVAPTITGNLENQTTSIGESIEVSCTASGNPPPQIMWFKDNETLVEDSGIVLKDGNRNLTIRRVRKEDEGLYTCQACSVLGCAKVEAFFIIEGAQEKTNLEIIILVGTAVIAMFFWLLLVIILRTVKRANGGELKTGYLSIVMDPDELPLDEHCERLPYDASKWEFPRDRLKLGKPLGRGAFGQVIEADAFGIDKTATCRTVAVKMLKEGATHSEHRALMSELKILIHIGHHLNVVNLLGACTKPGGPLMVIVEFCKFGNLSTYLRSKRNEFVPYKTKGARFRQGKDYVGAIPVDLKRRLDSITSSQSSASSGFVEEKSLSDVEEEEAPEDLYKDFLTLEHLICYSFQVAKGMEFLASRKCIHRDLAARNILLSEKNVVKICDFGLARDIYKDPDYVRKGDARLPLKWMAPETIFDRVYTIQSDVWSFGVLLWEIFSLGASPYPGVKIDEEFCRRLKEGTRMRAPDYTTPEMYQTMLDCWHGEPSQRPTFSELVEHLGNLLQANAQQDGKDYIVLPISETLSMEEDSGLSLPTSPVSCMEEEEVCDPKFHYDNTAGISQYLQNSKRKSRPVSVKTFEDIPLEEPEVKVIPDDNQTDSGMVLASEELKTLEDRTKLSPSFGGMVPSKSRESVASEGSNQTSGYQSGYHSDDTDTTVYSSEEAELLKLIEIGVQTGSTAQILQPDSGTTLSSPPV

PDGFRβ = PDGFRβ (Homo sapiens, UniProt P09619); assay: PDGFRβ kinase inhibition, whole-cell assay; format: cell-based
PDGFRβ, sequence (P09619 33-1106, species assumed): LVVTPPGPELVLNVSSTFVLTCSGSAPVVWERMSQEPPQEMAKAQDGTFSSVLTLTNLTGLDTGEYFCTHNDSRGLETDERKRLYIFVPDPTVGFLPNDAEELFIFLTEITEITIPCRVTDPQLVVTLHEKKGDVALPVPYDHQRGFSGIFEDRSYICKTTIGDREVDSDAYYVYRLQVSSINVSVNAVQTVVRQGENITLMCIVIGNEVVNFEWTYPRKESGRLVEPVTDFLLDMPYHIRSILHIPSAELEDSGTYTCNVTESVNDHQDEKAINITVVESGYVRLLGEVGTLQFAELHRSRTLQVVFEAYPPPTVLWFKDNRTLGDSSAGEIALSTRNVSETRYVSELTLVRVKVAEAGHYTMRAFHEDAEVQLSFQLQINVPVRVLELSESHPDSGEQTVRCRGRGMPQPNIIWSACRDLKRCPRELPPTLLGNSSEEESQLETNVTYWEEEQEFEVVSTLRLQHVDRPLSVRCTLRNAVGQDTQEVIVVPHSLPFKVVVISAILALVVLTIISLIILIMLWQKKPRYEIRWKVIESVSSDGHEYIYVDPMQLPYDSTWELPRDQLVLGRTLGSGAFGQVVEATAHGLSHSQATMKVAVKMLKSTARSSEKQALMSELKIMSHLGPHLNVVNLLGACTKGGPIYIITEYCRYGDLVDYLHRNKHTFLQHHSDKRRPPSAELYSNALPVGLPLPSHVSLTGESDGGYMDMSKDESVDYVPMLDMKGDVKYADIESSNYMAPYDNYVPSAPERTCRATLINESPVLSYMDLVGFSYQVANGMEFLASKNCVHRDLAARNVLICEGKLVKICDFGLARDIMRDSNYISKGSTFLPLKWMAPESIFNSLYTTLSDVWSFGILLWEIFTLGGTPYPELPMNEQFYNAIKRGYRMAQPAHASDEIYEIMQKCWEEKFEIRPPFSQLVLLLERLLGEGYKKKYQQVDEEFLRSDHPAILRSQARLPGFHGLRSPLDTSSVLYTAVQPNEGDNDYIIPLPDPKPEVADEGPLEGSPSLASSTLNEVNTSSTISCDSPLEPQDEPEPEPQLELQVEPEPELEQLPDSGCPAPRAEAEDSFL

COc1ccc(N(C)c2nc(C)nc3c(Cc4ccccc4)cn(C)c23)cc1 [Compound 4.HCl, 7-Benzyl-N-(4-methoxyphenyl)-N,2,5-trimethyl-5H-pyrrolo[3,2-d]pyrimidin-4-amine]
MTD (MTD in mice): 40 mg/kg | 4T1 primary tumor growth (volume) ([1]; 40 mg/kg IP twice weekly from day 8, vs carrier or vs doxorubicin, FIG. 2): significantly reduced 4T1 primary growth | number of lung small micro metastases ([1]; day 40, 1-9 cells without any vasculature, FIG. 5): reduced the number of lung small micro metastases | lung macrometastases ([1]; day 40, >10 cells with apparent vasculature, FIG. 5): none had any lung macrometastases | tumor weight at the end of the experiment ([1]; day 40, FIG. 4): reduced tumor weight | animal weight [1]: no change in animal weight

COc1ccc(Nc2nc(C)nc3c(Cc4ccccc4)cn(C)c23)cc1 (as salt: salt) [Compound 3, 7-Benzyl-N-(4-methoxyphenyl)-2,5-dimethyl-5H-pyrrolo[3,2-d]pyrimidin-4-amine]
melting point: 291 to 292 °C

CC(=O)O[C@H]1C(=O)[C@@]2(C)[C@H]([C@H](OC(=O)c3ccccc3)[C@]3(O)C[C@H](OC(=O)[C@H](O)[C@@H](NC(=O)c4ccccc4)c4ccccc4)C(C)=C1C3(C)C)[C@]1(OC(C)=O)CO[C@@H]1C[C@@H]2O [paclitaxel]
fold less potent in βIII-tubulin overexpressing cell line than in wild type HeLa cells [2]: 3 fold | IC50 [2]: 16.1 ± 1 nM | IC50 (wild type HeLa cells): 5.3 ± 2 nM

COc1cccc2c1C(=O)c1c(O)c3c(c(O)c1C2=O)C[C@@](O)(C(=O)CO)C[C@@H]3O[C@H]1C[C@H](N)[C@H](O)[C@H](C)O1 [doxorubicin, reference compound]
IC50 (A431 cells): 1.35 nM | animal weight [1]: began to result in weight loss in a few animals

COc1ccc(Nc2nc(C)nc3c(Cc4ccccc4)cn(C)c23)cc1 [Compound 3, 7-Benzyl-N-(4-methoxyphenyl)-2,5-dimethyl-5H-pyrrolo[3,2-d]pyrimidin-4-amine]
IC50 [2]: 5000 nM | IC50 (A431 cells): 2.3 ± 0.3 nM | IC50 (bovine brain tubulin): > 20000 nM | IC50 (EGFR): 2.6 nM | IC50 (wild type HeLa cells): 5000 nM | IC50 (VEGFR2): 26.7 nM | potency against PDGFRβ, in words (PDGFRβ): potencies comparable with DMBI | IC50 (PDGFRβ; whole-cell assay, read-out: kinase inhibition IC50 [whole-cell assays] PDGFRβ): 7.2 ± 0.9 nM
